Measurements: US20260308691A1, “NOVEL USE OF AN INHIBITOR OF THE POLY-ADP RIBOSE POLYMERASE (PARP) IN THE TREATMENT OF CANCER” (TESARO, Inc., priority 2023, published 2026)
Entries after “also recorded” stand apart in the source; their conditions may differ.

How the values were obtained:
Type in all cases: cell-based, human
PD-L1 = PD-L1 expression in PDO tumour cells cocultured with activated PBMC (flow cytometry and multiplex imaging); conditions: resistant PDOs, co-cultured 48 h with activated PBMC
Method: A multi-modal assay was developed to test tumour cell response to niraparib and the effects of the treatment on immune cells. The assay is illustrated in FIG. 1. […] After 5 to 7 days (according to the proliferation rate of each PDO), one plate is treated with different doses of niraparib and DMSO for cytotoxicity evaluation. The remaining plates, PDOs are treated with niraparib (1.4 μM), cisplatin (4.7 μM), DMSO or saline solution (control) for 7 days. Following the treatment period, the media from one plate/condition (i.e. one DMSO and one Niraparib-treated plate) is collected for exosomes isolation and analysis of DNA length and the PDOs are processed to extract RNA for RNAseq and qRT-PCR (see the details in the qRT-PCR analysis section). […]
(§1) MACS buffer with mouse anti human CD3, CD8, CD4, CD56, CD226, CD45, TIGIT, PD1, PDL1, EpCAM, PVRIG, TIM3, CD96, CD14 and CD11b antibodies for one hour at 4° C. […] The cell-containing tubes are running on CytoFLEX (Beckman Coulter), and data analyzed with FlowJo software.
Multiplex fluorescence imaging assay is performed on a single 6-micron cryosection of fixed-frozen PDOs. […]

[1] = tested on: exosomal DNA (exoDNA) from PDOs; assay: Length of DNA isolated from exosomes (exoDNA) of treated PDOs; conditions: for exoDNA length, sensitive PDO HNX29: HNX29 (sensitive, representative), exosomes collected after 6 days, compared to control
Method: A multi-modal assay was developed to test tumour cell response to niraparib and the effects of the treatment on immune cells. The assay is illustrated in FIG. 1. […] After 5 to 7 days (according to the proliferation rate of each PDO), one plate is treated with different doses of niraparib and DMSO for cytotoxicity evaluation. […] Following the treatment period, the media from one plate/condition (i.e. one DMSO and one Niraparib-treated plate) is collected for exosomes isolation and analysis of DNA length and the PDOs are processed to extract RNA for RNAseq and qRT-PCR (see the details in the qRT-PCR analysis section). For both niraparib and cisplatin treated samples (and the respective controls) PDOs are collected from the remaining plates and, after washing out BME, are plated into low adherence 96 well plates in a 1 to 6 ratio with Peripheral Blood Mononuclear Cells (PBMCs) pre-stimulated for a total of 4 days using anti-CD3 in combination anti-CD28 (as costimulatory signal) antibodies. The PDOs are co-cultured for 48 h after which all the cells are collected, the not infiltrating immune cells are washed off and the rest is either digested to single cells or fixed and embedded as whole tissue. For flow cytometry analysis the single cells are blocked, stained with antibody mix, fixed, and run on a flow cytometer. For imaging, the embedded organoids are labelled with different antibodies, cleared, and imaged.
Exosomes are obtaining by a series of centrifugations and ultra-centrifugations at increasing speeds of the media collected from the PDO cultures. Each sample is split into two tubes for the ultracentrifugation (for subsequent protein and genomic analysis).
DNA is extracted from exosomes via silica-membrane based nucleic acid purification by QIAamp Blood DNA extraction Kit (QIAGEN) and quantified by Qubit dsDNA HS kit. The Genomic DNA ScreenTape assay on the Agilent 4200 Tapestation system is used to assess the length of DNA and the R package bioanalyzeR exploited to obtain the DNA size distribution and number of molecules at different sizes. Part of the exosome DNA is sequenced using Oxford Nanopore Promethion for a drug treatment and a control experiment. For both samples, reads are then aligned to the human genome (hg38) using minimap2, and the following analyses performed. For every gene for which there are any aligned reads, the following is calculated: • Fragments per kilobase million (FPKM) as a normalised metric of representation of gene in the exosome dataset • The maximum fraction of total gene length that is covered by a single nanopore read. • The median fraction of total gene length that is covered by all nanopore reads that aligned to that gene • Coding and non-coding variants (for all bases for which there was a minimum depth of 20 reads) • Hypomethylation of CpG island of coding variants

[2] = tested on: Patient-derived organoids (PDOs), HNSCC and NSCLC; assay: Cytotoxicity in patient-derived organoids (Cell titre glow dose-response curve); conditions: for PDO response to niraparib compared with cisplatin: resistant and sensitive PDOs, 6 days
Method: (§2) A multi-modal assay was developed to test tumour cell response to niraparib and the effects of the treatment on immune cells. The assay is illustrated in FIG. 1. […] After 5 to 7 days (according to the proliferation rate of each PDO), one plate is treated with different doses of niraparib and DMSO for cytotoxicity evaluation. The remaining plates, PDOs are treated with niraparib (1.4 μM), cisplatin (4.7 μM), DMSO or saline solution (control) for 7 days. Following the treatment period, the media from one plate/condition (i.e. one DMSO and one Niraparib-treated plate) is collected for exosomes isolation and analysis of DNA length and the PDOs are processed to extract RNA for RNAseq and qRT-PCR (see the details in the qRT-PCR analysis section). For both niraparib and cisplatin treated samples (and the respective controls) PDOs are collected from the remaining plates and, after washing out BME, are plated into low adherence 96 well plates in a 1 to 6 ratio with Peripheral Blood Mononuclear Cells (PBMCs) pre-stimulated for a total of 4 days using anti-CD3 in combination anti-CD28 (as costimulatory signal) antibodies. The PDOs are co-cultured for 48 h after which all the cells are collected, the not infiltrating immune cells are washed off and the rest is either digested to single cells or fixed and embedded as whole tissue. For flow cytometry analysis the single cells are blocked, stained with antibody mix, fixed, and run on a flow cytometer. For imaging, the embedded organoids are labelled with different antibodies, cleared, and imaged.
PDOs are seeded as single cells at a certain density (according to their growth rate) in 15 μl BME/dome.
1 dome per well in 24-wells plate with 1 ml of complete media/each well. […] 150 μl of the solution is collected from each well and transferred to a 96 well plate for the reading performed with Clariostar Plus (BMG Labtech). […]

[3] = tested on: CD45 positive cells infiltrating PDOs; assay: Flow cytometry of CD45 positive immune cells infiltrating PDOs after coculture with activated PBMC; conditions: 48 h coculture
Method: as §2
After 48 h of co-culture, PDOs are collected. The non-infiltrating immune cells are separated with a cell strainer while the organoids and infiltrating immune cells reduced to single cell level. Live dead exclusion is performed incubating the cells with Zombie dye for 30 minutes at room temperature. Following a blocking step in MACS buffer and anti-human and mouse IgG, staining is performed in
MACS buffer with mouse anti human CD3, CD8, CD4, CD56, CD226, CD45, TIGIT, PD1, PDL1, EpCAM, PVRIG, TIM3, CD96, CD14 and CD11b antibodies for one hour at 4° C. The cells are then fixed and DNA staining performed. The cell-containing tubes are running on CytoFLEX (Beckman Coulter), and data analyzed with FlowJo software.

PD1 = assay: Flow cytometry of PD1 expression on CD4 positive cells cocultured with PDOs; conditions: niraparib-treated PDOs, 48 h coculture
Method: as §2, with “The PDOs are co-cultured for 48 h after which all the cells are collected, the not infiltrating immune cells are washed off and the rest is either digested to single cells or fixed and embedded as whole tissue. For flow cytometry analysis the single cells are blocked, stained with antibody mix, fixed, and run on a flow cytometer. For imaging, the embedded organoids are labelled with different antibodies, cleared, and imaged.” left out
as §1

[4] = tested on: EpCAM positive cells of PDOs; assay: Tumour cell viability by flow cytometry (live cells within EpCAM positive cells) after coculture with PBMC; conditions: 1.4 μM niraparib or DMSO 7 days, 48 h coculture with PBMC
Method: as §2, with “The PDOs are co-cultured for 48 h after which all the cells are collected, the not infiltrating immune cells are washed off and the rest is either digested to single cells or fixed and embedded as whole tissue. For flow cytometry analysis the single cells are blocked, stained with antibody mix, fixed, and run on a flow cytometer. For imaging, the embedded organoids are labelled with different antibodies, cleared, and imaged.” left out
Cell viability is evaluated by flow cytometry analysis performed after 48 h of co-culture subsequent to 7 days of treatment with 1.4 μM Niraparib or DMSO (as control). […]

Compound | PD-L1 expression in cisplatin-treated tumour cells (PD-L1; vs saline) | exoDNA length, sensitive PDO HNX29 [1] | exoDNA length, cisplatin-treated PDOs more resistant to niraparib ([1]; PDOs more resistant to niraparib, cisplatin-treated) | PDO response to niraparib compared with cisplatin [2] | infiltration of CD45 positive cells, cisplatin-treated resistant PDOs ([3]; PDOs classified as resistant to niraparib, cisplatin 4.7 μM 7 days, vs saline) | infiltration of CD45 positive cells, cisplatin-treated sensitive PDOs ([3]; PDOs classified as sensitive to niraparib, cisplatin 4.7 μM 7 days, vs saline) | PD-L1 expression in niraparib-treated tumour cells (PD-L1; vs DMSO) | correlation of exoDNA length with niraparib IC50 ([1]; 6 HNSCC and 3 NSCLC PDOs) | threshold ratio (niraparib/DMSO) of exosomal DNA length ([1]; ROC curve vs IC50 value, 10 PDOs, sensitivity 100%, specificity 67%) | exoDNA length, niraparib-treated, versus niraparib sensitiveness ([1]; compared to exoDNA from DMSO-treated counterpart) | exoDNA length, niraparib-treated more resistant PDOs ([1]; resistant PDOs, compared to DMSO-treated counterpart) | PD1 expression in infiltrating CD4 positive cells (PD1; infiltrating CD4 positive (T) cells) | PD1 expression in non-infiltrating CD4 positive cells (PD1; non-infiltrating CD4 positive cells) | IC50 ([2]; Homo sapiens, 168 h, read-out: IC50 threshold (inflection point) above which increased infiltration of CD45 positive cells is observed, PDOs from multiple tumour types, dose-response curve after 7 days of treatment) [nM] | threshold ratio (niraparib/DMSO) in tumour cell viability between sensitive and resistant cancers [4] | change / ratio (niraparib/DMSO) in tumour cell viability ([4]; sensitive vs resistant PDOs) | infiltration of CD45 positive cells, niraparib-treated resistant PDOs ([3]; resistant PDOs (high niraparib IC50), niraparib 1.4 μM 7 days, vs DMSO) | infiltration of CD45 positive cells, niraparib-treated sensitive PDOs ([3]; sensitive PDOs (low niraparib IC50), niraparib 1.4 μM 7 days, vs DMSO)
N.N.[Cl][Pt][Cl] [cisplatin] | upregulation of PDL1 expression | higher | shorter | similar | higher infiltration of CD45 pos cells; also recorded: increased infiltration of CD45 positive cells | decreased infiltration with CD45 positive cells | – | – | – | – | – | – | – | – | – | – | – | –
NC(=O)c1cccc2cn(-c3ccc([C@@H]4CCCNC4)cc3)nc12 [niraparib] | – | higher | – | similar | – | – | upregulation of PD-L1 expression; also recorded: PDL1 upregulation; also recorded: high levels of PD-L1, or PD-L1 upregulation | exoDNA length correlates with the niraparib IC50 | 1.1 | increased with the increase of niraparib sensitiveness | shorter | PD1 expression increases with the increased in IC50 value; also recorded: upregulate PD1 expression; also recorded: high levels of PD1 expression | PD1 expression negatively correlates with niraparib IC50 value | 1000 to 1200 | 0.75 | higher ratio (naraparib/DMSO) in tumour cell viability; also recorded: only pronounced in cancers that are sensitive to the PARP inhibitor, niraparib | increased in resistant samples; also recorded: increased infiltration of CD45 positive cells; also recorded: increased levels of CD45 positive cell infiltration | reduced in sensitive samples; also recorded: decreased infiltration with CD45 positive cells
